Results on nine compounds are retold here after ChEMBL document CHEMBL4376831, “Enhancing the Cell Permeability of Stapled Peptides with a Cyclic Cell-Penetrating Peptide” (J Med Chem, 2019).

Calls of active or inactive are those of the source. No cut-off for these calls is given here. *1 amine or outer side, *2 acyl side, *3 side chain or, on linkers, in order; H or OH if unused. Where a SMILES comes first, the peptide text is derived from it. Bridges are numbered along the chain shown (N, C = ends). Roman numbers before positions name the chains, in order. [ ]: non-standard residue; d: D form. The star is where a group is joined. X2 = O=C(O)c1cc(C(=O)*)ccc1-c1c2ccc3cc(O)ccc3c2oc2c1ccc1cc(=O)ccc12; 2Nal = N[C@@H](Cc1ccc2ccccc2c1)C(=O)O; mXylylene = c1cc(C[*:1])cc(C[*:2])c1; AEEA = NCCOCCOCC(=O)O; βAla = NCCC(=O)O Where only a bound is given, the exact number is not on record here.

In series [1] the test system is SW480. Description: Antiproliferative activity against human SW480 cells incubated for 72 hrs by MTT assay. The settings on record: SW480, 72 h. The class given is functional, cell-based.
The test system of series [2] is MCF7. Description: Antiproliferative activity against human MCF7 cells incubated for 72 hrs by MTT assay. In kind it is functional, cell-based.
In series [3] the test system is HeLa. Briefly: Cytotoxicity against human HeLa cells incubated for 72 hrs using FAM-labeled compound by MTT assay. In kind it is cell-based. (Formazan colour is commonly taken as a measure of viable cells.)
Series [4] concerns SJSA-1. The settings on record: Homo sapiens.
Series [5] has as its system HeLa. Briefly: Induction of cell membrane disruption in human HeLa cells incubated for 4 hrs using FAM-labeled compound by LDH assay. The class given is cell-based.
Series [6] deals with SJSA-1. Description: Antiproliferative activity against human SJSA1 cells expressing wild-type p53 upto 20 uM incubated for 72 hrs by MTT assay. The class given is functional, cell-based.
Series [7] concerns HeLa. Description: Induction of cell membrane disruption in human HeLa cells expressing wild-type p53 at =>20 uM incubated for 4 hrs by LDH assay relative to control. The class given is functional.
Series [8] relates to HCT-116. Description: Induction of apoptosis in human HCT116 cells expressing wild-type p53 at =< 10 uM incubated for 48 hrs by Annexin V/propidium iodide-staining based flow cytometric analysis relative to control. In kind it is functional. A general note: Flow cytometry measures light scatter and fluorescence of single cells or particles in a stream.
Series [9] concerns SJSA-1. Description: Induction of apoptosis in human SJSA1 cells at 10 uM incubated for 48 hrs by Annexin V/propidium iodide-staining based flow cytometric analysis. In kind it is functional, cell-based.
For series [10], the system named is HCT-116. Description: Induction of cell membrane disruption in human HCT116 cells expressing wild-type p53 at =>20 uM incubated for 4 hrs by LDH assay relative to control. In kind it is functional.
The subject of series [11] is HeLa. Briefly: Induction of apoptosis in human HeLa cells expressing wild-type p53 at =< 10 uM incubated for 48 hrs by Annexin V/propidium iodide-staining based flow cytometric analysis relative to control. In kind it is functional.
The test system of series [12] is SJSA-1. Briefly: cells. The settings on record: Homo sapiens, SJSA-1, 72 h.
Series [13] relates to MCF7. Briefly: Induction of cell membrane disruption in human MCF7 cells expressing wild-type p53 at =>20 uM incubated for 4 hrs by LDH assay relative to control. In kind it is functional.
For series [14], the system named is MCF7. Briefly: Induction of apoptosis in human MCF7 cells expressing wild-type p53 at =< 10 uM incubated for 48 hrs by Annexin V/propidium iodide-staining based flow cytometric analysis relative to control. In kind it is functional.
A short description of series [15]: Permeability of the compound in human HeLa cells at 5 uM incubated for 2 hrs by flow cytometric analysis relative to CPP9. The class given is ADME, cell-based.

`CC[C@H](C)[C@@H]1NC(=O)[C@@H](NC(=O)[C@H](CCC(=O)O)NC(=O)[C@@H]2CCCN2C(=O)[C@H](Cc2ccc(O)cc2)NC(=O)CNC(=O)CNC(C)=O)CC(=O)NCCCC[C@@H](C(=O)N[C@@H](Cc2cnc[nH]2)C(=O)N[C@@H](CC(C)C)C(=O)N[C@@H](CCC(N)=O)C(=O)N[C@@H](CCCNC(=N)N)C(=O)N[C@H](C(=O)N[C@H](C(=O)N[C@@H](CC(C)C)C(=O)NCCOCCOCC(=O)NCCOCCOCC(=O)N[C@@H](CNC(=O)[C@H](CCCNC(=N)N)NC(=O)[C@H](CCCNC(=N)N)NC(=O)[C@H](CCCNC(=N)N)NC(=O)[C@H](CCCNC(=N)N)NC(=O)[C@H](CCCNC(=N)N)NC(=O)[C@H](CCCNC(=N)N)NC(=O)[C@H](CCCNC(=N)N)NC(=O)[C@H](CCCNC(=N)N)NC(=O)[C@H](CCCNC(=N)N)NC(C)=O)C(N)=O)[C@@H](C)CC)C(C)C)NC(=O)[C@H](CC(=O)O)NC(=O)[C@H](CC(C)C)NC1=O` gave an IC50 in series [1] greater than 20 µM. Besides, in [2], the result was Active.

As for `CC(=O)N[C@@H](Cc1ccc(O)cc1)C(=O)NCC(=O)N[C@@H](CCCNC(=N)N)C(=O)N[C@@H](CCCCN)C(=O)N[C@@H](CCCCN)C(=O)N[C@@H](CCCNC(=N)N)C(=O)N[C@@H](CCCNC(=N)N)C(=O)N[C@@H](CCC(N)=O)C(=O)N[C@@H](CCCNC(=N)N)C(=O)N[C@@H](CCCNC(=N)N)C(=O)N[C@@H](CCCNC(=N)N)C(=O)NCCCC[C@H](NC(=O)COCCOCCNC(=O)[C@H](CO)NC(=O)[C@@H](NC(=O)[C@H](CC(C)C)NC(=O)[C@H](CCC(N)=O)NC(=O)[C@@H]1CCCCNC(=O)C[C@H](NC(=O)[C@H](Cc2ccccc2)NC(=O)[C@@H](NC(=O)[C@H](CC(C)C)NC(C)=O)[C@@H](C)O)C(=O)N[C@@H](Cc2cnc[nH]2)C(=O)N[C@@H](Cc2ccc(O)cc2)C(=O)N[C@@H](Cc2c[nH]c3ccccc23)C(=O)N1)[C@@H](C)O)C(N)=O`, the Activity result in series [3] and in series [5] was “Toxic” throughout. The result in [4] was inactive.

Compound `CC[C@H](C)[C@@H]1NC(=O)[C@@H](NC(=O)[C@H](CCC(=O)O)NC(=O)[C@@H]2CCCN2C(=O)[C@H](Cc2ccc(O)cc2)NC(=O)CNC(=O)CNC(C)=O)CC(=O)NCCCC[C@@H](C(=O)N[C@@H](Cc2cnc[nH]2)C(=O)N[C@@H](CC(C)C)C(=O)N[C@@H](CCC(N)=O)C(=O)N[C@@H](CCCNC(=N)N)C(=O)N[C@H](C(=O)N[C@H](C(=O)N[C@@H](CC(C)C)C(=O)NCCOCCOCC(=O)NCCOCCOCC(=O)N[C@@H](CNC(=O)[C@H](CCCNC(=N)N)NC(=O)[C@H](CCCNC(=N)N)NC(=O)[C@H](CCCNC(=N)N)NC(=O)[C@H](CCC(N)=O)NC(=O)[C@H](CCCNC(=N)N)NC(=O)[C@H](CCCNC(=N)N)NC(=O)[C@H](CCCCN)NC(=O)[C@H](CCCCN)NC(=O)[C@H](CCCNC(=N)N)NC(=O)CNC(=O)[C@H](Cc2ccc(O)cc2)NC(C)=O)C(N)=O)[C@@H](C)CC)C(C)C)NC(=O)[C@H](CC(=O)O)NC(=O)[C@H](CC(C)C)NC1=O` had an IC50 in [1] greater than 20 µM. The outcome in [2] was Active.

On to `CC(=O)N[C@@H](CCCNC(=N)N)C(=O)N[C@@H](CCCNC(=N)N)C(=O)N[C@@H](CCCNC(=N)N)C(=O)N[C@@H](CCCNC(=N)N)C(=O)N[C@@H](CCCNC(=N)N)C(=O)N[C@@H](CCCNC(=N)N)C(=O)N[C@@H](CCCNC(=N)N)C(=O)N[C@@H](CCCNC(=N)N)C(=O)N[C@@H](CCCNC(=N)N)C(=O)NCCCC[C@H](NC(=O)COCCOCCNC(=O)[C@H](CO)NC(=O)[C@@H](NC(=O)[C@H](CC(C)C)NC(=O)[C@H](CCC(N)=O)NC(=O)[C@@H]1CCCCNC(=O)C[C@H](NC(=O)[C@H](Cc2ccccc2)NC(=O)[C@@H](NC(=O)[C@H](CC(C)C)NC(C)=O)[C@@H](C)O)C(=O)N[C@@H](Cc2cnc[nH]2)C(=O)N[C@@H](Cc2ccc(O)cc2)C(=O)N[C@@H](Cc2c[nH]c3ccccc23)C(=O)N1)[C@@H](C)O)C(N)=O`, for which the Activity result in series [3] and in [5] was “Toxic” in each case. Moreover, the outcome in [4] was inactive.

Regarding `CC(=O)N[C@@H](CC(C)C)C(=O)N[C@H](C(=O)N[C@@H](Cc1ccccc1)C(=O)N[C@H]1CC(=O)NCCCC[C@@H](C(=O)N[C@@H](CCC(N)=O)C(=O)N[C@@H](CC(C)C)C(=O)N[C@H](C(=O)N[C@@H](CO)C(=O)NCCOCCOCC(=O)N[C@@H](CCCCN)C(N)=O)[C@@H](C)O)NC(=O)[C@H](Cc2c[nH]c3ccccc23)NC(=O)[C@H](Cc2ccc(O)cc2)NC(=O)[C@H](Cc2cnc[nH]2)NC1=O)[C@@H](C)O` (Ac-LTFDHYWKQLTS[AEEA]K-NH2; lactam 4-8), in series [6], the result was inactive.

As to `CC(=O)N[C@@H](CC(C)C)C(=O)N[C@H](C(=O)N[C@@H](Cc1ccccc1)C(=O)N[C@H]1CC(=O)NCCCC[C@@H](C(=O)N[C@@H](CCC(N)=O)C(=O)N[C@@H](CC(C)C)C(=O)N[C@H](C(=O)N[C@@H](CO)C(=O)NCCOCCOCC(=O)N[C@@H](CCCCNC(=O)CC[C@@H]2NC(=O)[C@@H](CCCNC(=N)N)NC(=O)[C@H](CCCNC(=N)N)NC(=O)[C@@H](CCCNC(=N)N)NC(=O)[C@H](CCCNC(=N)N)NC(=O)[C@H](Cc3ccc4ccccc4c3)NC(=O)[C@@H](Cc3ccccc3)NC2=O)C(N)=O)[C@@H](C)O)NC(=O)[C@H](Cc2c[nH]c3ccccc23)NC(=O)[C@H](Cc2ccc(O)cc2)NC(=O)[C@H](Cc2cnc[nH]2)NC1=O)[C@@H](C)O` (I: Ac-LTFDHYWKQLTS[AEEA]K-NH2 / II: cyclo([2Nal]R[dR]R[dR]E[dF]); lactam I:4-I:8; amide I:14-II:6), the Activity is 100% in series [7]; 5 - 50% in series [8]; “Toxic” in series [3]; “Dose-dependent effect” in [4]; “Toxic” in series [5]; 100% in series [10]. Besides, the Activity in series [11] is reported as 5 - 50%; in series [13], 100%; in [14] it was 5 - 50%. For the same compound, the result in [9] was Active. The EC50 in series [12] came to 3.8 µM.

Regarding `CC[C@H](C)[C@@H]1NC(=O)[C@@H](NC(=O)[C@H](CCC(=O)O)NC(=O)[C@@H]2CCCN2C(=O)[C@H](CC(N)=O)NC(=O)[C@H](CCC(=O)O)NC(=O)CCNC(=O)c2ccc(-c3c4ccc5cc(O)ccc5c4oc4c3ccc3cc(=O)ccc34)c(C(=O)O)c2)CSCc2cccc(c2)CSC[C@@H](C(=O)N[C@@H](Cc2cnc[nH]2)C(=O)N[C@H](C(=O)N[C@@H](CCC(N)=O)C(=O)N[C@@H](CCCNC(=N)N)C(=O)N[C@H](C(=O)N[C@@H](CCSC)C(N)=O)C(C)C)C(C)C)NC(=O)[C@H](CC(=O)O)NC(=O)[C@H](CC(C)C)NC1=O` ({X2-βAla}-ENPECILDCHVQRVM-NH2; linker 5-9 via mXylylene), the permeability in [15] was determined as 2.5%.

In series [15], `CC[C@H](C)[C@@H]1NC(=O)[C@@H](NC(=O)[C@H](CCC(=O)O)NC(=O)[C@@H]2CCCN2C(=O)[C@H](CC(N)=O)NC(=O)CCNC(=O)c2ccc(-c3c4ccc5cc(O)ccc5c4oc4c3ccc3cc(=O)ccc34)c(C(=O)O)c2)CSCc2cccc(c2)CSC[C@@H](C(=O)N[C@@H](Cc2cnc[nH]2)C(=O)N[C@H](C(=O)N[C@@H](CCC(N)=O)C(=O)N[C@@H](CCCNC(=N)N)C(=O)N[C@H](C(=O)N[C@@H](CCSC)C(N)=O)C(C)C)C(C)C)NC(=O)[C@H](CC(=O)O)NC(=O)[C@H](CC(C)C)NC1=O` ({X2-βAla}-NPECILDCHVQRVM-NH2; linker 4-8 via mXylylene) displayed a permeability of 8.9%.

In [12], `COc1ccc(C2=N[C@@H](c3ccc(Cl)cc3)[C@@H](c3ccc(Cl)cc3)N2C(=O)N2CCNC(=O)C2)c(OC(C)C)c1` [NUTLIN-3] gave an EC50 of 4.2 µM. This lies in the single-digit micromolar range.

For orientation: IC50 means the concentration that inhibits the measured activity by half. As usually defined, the EC50 is the concentration that produces a half-maximal response.
